Measurements taken from patent US20200353052A1, “COMPOSITION FOR PROMOTING GOBLET CELL PROLIFERATION OR MUCIN SECRETION COMPRISING THYMOSIN BETA 4 OR DERIVATIVE THEREOF AS ACTIVE INGREDIENT” (G-TREEBNT CO., LTD., priority 2017, published 2020).

Columns and labels:
Format in all cases: in vivo, NOD.B10-H2b mice
Muc1 = test: Immunofluorescence staining of Muc1 in cornea and conjunctiva of dry eye-induced mice; conditions: corneal and conjunctival epithelium; eye drop instillation for 10 days; immunofluorescence (FIGS. 6 and 7)
Description: (§1) 12-week-old or older NOD.B10-H2b mice were kept in a chamber with a humidity of 40% or lower for 10 days. Scopolamine hydrobromide (Sigma-Aldrich, SLBR8568V) at a concentration of 0.5 mg/0.2 ml was injected subcutaneously into the thigh 4 times (9 am, 12 pm, 3 pm, and 6 pm) daily while the mice were kept in the chamber. After 10 days, tear secretion volume and corneal smoothness score were measured, and only those mice with a tear secretion volume of 0.06 μl or lower and a corneal smoothness score of 2 or lower were selected.
(§2) For each test drug, eye drop instillation was performed as follows: Vehicle, 4 times a day; Diquas (Santen Pharmaceutical Co., Ltd., Japan), 6 times a day; Xiidra (Shire plc, USA), twice a day; and GBT-201, twice or 4 times a day. After 10 days, each group of mice was sacrificed, the eyeballs were collected, and tissue immunostaining and molecular biological analysis were performed (FIG. 1). […]
(§3) Specifically, the eyeballs of the mice sacrificed in Experimental Example 1 were collected, and the eyes and adnexa, which had been fixed in formalin for 3 days, were cut into 6 μm sections using a microtome. […] The mounted slide was photographed using a fluorescence microscope (Leica DM2500, Leica Microsystems GmbH, Wetzlar, Germany).

Muc5AC = test: Immunofluorescence staining of Muc5AC in cornea and conjunctiva of dry eye-induced mice; conditions: eye drop instillation for 10 days, immunofluorescence (FIGS. 6 and 7)
Description: as §1, §2, §3

[1] = test system: goblet cells in the conjunctiva; test: Goblet cell number by PAS staining of eyeball sections from dry eye-induced mice after eye drop instillation; conditions: eye drop instillation for 10 days; PAS staining photographs (FIG. 2)
Description: as §1
(§4) For each test drug, eye drop instillation was performed as follows: Vehicle, 4 times a day; Diquas (Santen Pharmaceutical Co., Ltd., Japan), 6 times a day; Xiidra (Shire plc, USA), twice a day; and GBT-201, twice or 4 times a day. After 10 days, each group of mice was sacrificed, the eyeballs were collected, and tissue immunostaining and molecular biological analysis were performed (FIG. 1).
In order to identify whether thymosin beta 4 promotes proliferation of goblet cells, which are cells that secrete mucin in the conjunctiva, the eyeballs of the mice sacrificed in Experimental Example 1 were collected and assessed through periodicacid-Schiff (PAS) staining. […]

Muc4 = test: Immunofluorescence staining of Muc4 in cornea and conjunctiva of dry eye-induced mice; conditions: corneal and conjunctival epithelium; eye drop instillation for 10 days; immunofluorescence (FIGS. 6 and 7)
Description: as §1, §2, §3

Muc16 = test: Immunofluorescence staining of Muc16 in cornea and conjunctiva of dry eye-induced mice; conditions: corneal and conjunctival epithelium; eye drop instillation for 10 days; immunofluorescence (FIGS. 6 and 7)
Description: as §1, §2, §3

[2] = test system: mucin secreted in the conjunctiva; test: Amount of mucin secreted by Alcian blue staining of eyeball sections from dry eye-induced mice after eye drop instillation; conditions: eye drop instillation for 10 days; Alcian blue staining photographs (FIG. 4)
Description: as §1, §4
In order to identify whether thymosin beta 4 results in an increase in amount of mucin secreted in the conjunctiva, the eyeballs of the mice sacrificed in Experimental Example 1 were collected and assessed through Alcian blue staining.
Specifically, the eyeballs of the mice sacrificed in Experimental Example 1 were collected, and the eyes and adnexa, which had been fixed in formalin for 3 days, were cut into 6 μm sections using a microtome. […]

thymosin beta 4 (SDKPDMAEIEKFDKSKLKKTETQEKNPLPSKETIEQEKQAGES; thymosin beta 4; listed as Homo sapiens)
increased: expression level of Muc1 as compared with the DS D10 control group, visually identified (Muc1) | expression level of Muc5AC as compared with the DS D10 control group, visually identified (Muc5AC) | number of goblet cells as compared with the DS D10 control group, visually identified [1] | expression level of Muc4 as compared with the DS D10 control group, visually identified (Muc4) | expression level of Muc16 as compared with the DS D10 control group, visually identified (Muc16) | amount of mucin secreted as compared with the DS D10 control group, visually identified [2]
